In one assay the target is rhEphA2 (Homo sapiens, UniProt P29317). The experiment in a line: SPR binding to immobilized rhEphA2 (Biacore 3000). Further details: purchased R&D Systems, Inc., Minneapolis, Minn. As for the experimental part:
(§1) Binding to selected ephrin receptors was measured by surface plasmon resonance on a Biacore3000 instrument. Commercially available ephrin receptors: EphA2, EphB2 and EphB4 (R&D Systems) were immobilized on a CM-5 chip by amine coupling and tested peptides were passed over a chip surface as analytes.
(§2) Binding studies. Binding studies were performed by surface plasmon resonance (SPR) on a BIAcore 3000 system (BiaCore AB, Piscataway, N.J.). BIAcore CM5 sensor chips were utilized in all experiments. Binding studies were performed in HBS-EP running buffer (pH=7.4) containing 10 mM HEPES, 150 mM NaCl, 3 mM EDTA, and 0.005% polysorbate 20. Commercially available ephrin receptors: EphA2, EphB2 and EphB4 (R&D Systems, Inc., Minneapolis, Minn.) were immobilized on a CM5 sensor chip using the amine coupling method. The chip was activated by mixing 400 mM N-ethyl-N-(3-dimethylaminopropyl)-carbodiimide hydrochloride and 100 mM N-hydroxysuccinimide. Residual reactive groups on the chip surface were blocked using 1.0 M ethanolamine/HCl (pH=8.5). The flow cell-1 chip, which served as a control, lacked immobilized protein but was treated with N-ethyl-N-(3-dimethylaminopropyl)-carbodiimide hydrochloride, N hydroxysuccinimide, and ethanolamine/HCl. Binding signals were corrected for nonspecific binding by subtracting the flow cell-1 signal (blank surface). To regenerate chip surfaces, bound ligands were removed with 10 mM HCl. Data were analyzed with BIAevaluation 4.1 software (Biacore, Piscataway, N.J.).

The target of another assay is T1, rhEphB4 (Homo sapiens, UniProt P54760).
T1 construct: purchased R&D Systems, Inc., Minneapolis, Minn
T1 sequence (P54760 16-987): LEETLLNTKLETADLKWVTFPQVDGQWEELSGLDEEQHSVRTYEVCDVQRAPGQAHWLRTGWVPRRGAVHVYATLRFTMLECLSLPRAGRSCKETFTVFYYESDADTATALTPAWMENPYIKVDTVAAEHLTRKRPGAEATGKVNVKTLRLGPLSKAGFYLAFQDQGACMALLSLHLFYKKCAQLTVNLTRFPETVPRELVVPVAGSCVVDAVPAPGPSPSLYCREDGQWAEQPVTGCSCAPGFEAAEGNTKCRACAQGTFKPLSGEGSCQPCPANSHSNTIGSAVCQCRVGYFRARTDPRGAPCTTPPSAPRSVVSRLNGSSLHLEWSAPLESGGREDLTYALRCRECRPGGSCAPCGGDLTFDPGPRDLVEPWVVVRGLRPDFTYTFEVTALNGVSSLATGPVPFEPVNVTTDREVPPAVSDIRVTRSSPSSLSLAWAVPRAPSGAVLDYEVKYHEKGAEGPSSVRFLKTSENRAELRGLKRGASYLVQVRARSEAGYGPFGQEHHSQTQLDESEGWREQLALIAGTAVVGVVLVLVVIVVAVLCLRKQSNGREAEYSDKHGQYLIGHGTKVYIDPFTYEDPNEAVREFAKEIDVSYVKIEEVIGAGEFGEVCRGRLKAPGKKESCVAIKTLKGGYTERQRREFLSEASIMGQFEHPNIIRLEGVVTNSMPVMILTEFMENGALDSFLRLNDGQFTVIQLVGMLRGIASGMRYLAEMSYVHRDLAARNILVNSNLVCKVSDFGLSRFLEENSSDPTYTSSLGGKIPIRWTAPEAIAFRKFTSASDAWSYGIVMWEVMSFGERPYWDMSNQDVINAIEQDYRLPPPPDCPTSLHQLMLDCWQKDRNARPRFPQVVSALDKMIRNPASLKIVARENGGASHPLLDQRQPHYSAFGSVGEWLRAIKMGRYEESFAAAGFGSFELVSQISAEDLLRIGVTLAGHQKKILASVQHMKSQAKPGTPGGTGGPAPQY
In words: SPR binding to immobilized rhEphB4 (Biacore 3000). The method, then: as §1, §2
For orientation: In SPR one partner is held on a chip, and binding of the other changes the refractive index at the surface.

A further assay addresses rhEphB2/Fc (Homo sapiens, UniProt P29323). The experiment in a line: SPR binding to immobilized rhEphB2/Fc (Biacore 3000). Set-up: Fc; purchased R&D Systems, Inc., Minneapolis, Minn. As for the experimental part:
as §1, §2

Kd data for five compounds are collected here from US8716246B2, “Azuvirin peptides” (The Regents of the University of California, priority 2011, dated 2014).

Read-outs that look alike come from different tables or passages of the source. Bridge positions count the residues as written; N and C are the ends. Square brackets hold non-standard residues; d marks the D form. Peptide text beside a SMILES is read from it. * marks the point of attachment. Oic = O=C(O)[C@@H]1C[C@@H]2CCCC[C@@H]2N1; Cha = N[C@@H](CC1CCCCC1)C(=O)O; Tle = CC(C)(C)[C@H](N)C(=O)O; Nicotinoyl = O=C(c1cccnc1)*

In the case of `C[C@@H](O)[C@@H]1NC(=O)[C@H](CCCNC(=N)N)NC(=O)[C@H](Cc2c[nH]cn2)NC(=O)CNC(=O)[C@@H]2C[C@@H]3CCCC[C@@H]3N2C(=O)[C@H](CC2CCCCC2)NC(=O)[C@H](C(C)(C)C)NC(=O)[C@@H](NC(=O)[C@H](CC2CCCCC2)NC(=O)[C@H](CC2CCCCC2)NC(=O)[C@@H](CCCCN)NC(=O)[C@@H](N)Cc2ccc(O)cc2)CSSC[C@@H](C(=O)N[C@H](CCCCN)C(N)=O)NC(=O)[C@H](CC2CCCCC2)NC1=O` [AzV34] (H-Y[dK][Cha][Cha]C[Tle][Cha][Oic]GHRT[Cha]C[dK]-NH2; disulfide 5-14), the Kd came to 196 ± 21 nM on rhEphA2, 135 ± 21 nM at rhEphB4 and 189 ± 21 nM on rhEphB2/Fc.

In the case of `C[C@@H](O)[C@@H]1NC(=O)[C@H](CCCNC(=N)N)NC(=O)[C@H](Cc2c[nH]cn2)NC(=O)[C@@H](CCCNC(=N)N)NC(=O)[C@@H]2C[C@@H]3CCCC[C@@H]3N2C(=O)[C@H](CC2CCCCC2)NC(=O)[C@H](C(C)(C)C)NC(=O)[C@@H](NC(=O)[C@H](CC2CCCCC2)NC(=O)[C@H](CC2CCCCC2)NC(=O)[C@@H](CCCCNC(=O)c2cccnc2)NC(=O)[C@@H](N)Cc2ccc(O)cc2)CSSC[C@@H](C(=O)N[C@H](CCCCN)C(N)=O)NC(=O)[C@H](CC2CCCCC2)NC1=O` [AzV36-Nic, YkNic-Cha-Cha-Cys-Tle-Cha-Oic-rHRT-Cha-Cys-k-CONH] (H-Y[dK](Nicotinoyl)[Cha][Cha]C[Tle][Cha][Oic][dR]HRT[Cha]C[dK]-NH2; disulfide 5-14), the Kd at rhEphA2 was determined as 425 ± 226 nM; on rhEphB4, 138 ± 41 nM; on rhEphB2/Fc, 251 ± 120 nM.

In the case of `C[C@@H](O)[C@@H]1NC(=O)[C@H](CCCNC(=N)N)NC(=O)[C@H](Cc2c[nH]cn2)NC(=O)[C@@H](CCCNC(=N)N)NC(=O)[C@@H]2C[C@@H]3CCCC[C@@H]3N2C(=O)[C@H](CC2CCCCC2)NC(=O)[C@@H](CCCNC(=N)N)NC(=O)[C@@H](NC(=O)[C@H](CC2CCCCC2)NC(=O)[C@H](CC2CCCCC2)NC(=O)[C@@H](CCCCN)NC(=O)[C@@H](N)Cc2ccc(O)cc2)CSSC[C@@H](C(=O)N[C@H](CCCCN)C(N)=O)NC(=O)[C@H](CC2CCCCC2)NC1=O` [AzV38] (H-Y[dK][Cha][Cha]C[dR][Cha][Oic][dR]HRT[Cha]C[dK]-NH2; disulfide 5-14), the Kd amounted to 109 ± 3.5 nM at rhEphA2, 46.3 ± 3.8 nM on rhEphB4 and 101 ± 2.7 nM at rhEphB2/Fc.

On to `C[C@@H](O)[C@@H]1NC(=O)[C@H](CCCNC(=N)N)NC(=O)[C@H](Cc2c[nH]cn2)NC(=O)CNC(=O)[C@@H]2C[C@@H]3CCCC[C@@H]3N2C(=O)[C@H](CC2CCCCC2)NC(=O)[C@H](C(C)(C)C)NC(=O)[C@@H](NC(=O)[C@H](CC2CCCCC2)NC(=O)[C@H](CC2CCCCC2)NC(=O)[C@H](CCCCN)NC(=O)[C@@H](N)Cc2ccc(O)cc2)CSSC[C@@H](C(=O)N[C@@H](CCCCN)C(N)=O)NC(=O)[C@H](CC2CCCCC2)NC1=O` [AzV31] (H-YK[Cha][Cha]C[Tle][Cha][Oic]GHRT[Cha]CK-NH2; disulfide 5-14; N-terminus assumed), for which the Kd on rhEphA2 (SPR, averaged from at least 4 independent experiments, read-out: KD ± SEM, rhEphA2) worked out at 196 ± 25 nM; at rhEphB4 (SPR, averaged from at least 4 independent experiments, read-out: KD ± SEM, rhEphB4), 146 ± 14 nM; at rhEphB2/Fc (SPR, averaged from at least 4 independent experiments, read-out: KD ± SEM, rhEphB2/Fc), 192 ± 24 nM.

In the case of `C[C@@H](O)[C@@H]1NC(=O)[C@H](CCCNC(=N)N)NC(=O)[C@H](Cc2c[nH]cn2)NC(=O)CNC(=O)[C@@H]2C[C@@H]3CCCC[C@@H]3N2C(=O)[C@H](CC2CCCCC2)NC(=O)[C@@H](CCCNC(=N)N)NC(=O)[C@@H](NC(=O)[C@H](CC2CCCCC2)NC(=O)[C@H](CC2CCCCC2)NC(=O)[C@H](CCCCN)NC(=O)[C@@H](N)Cc2ccc(O)cc2)CSSC[C@@H](C(=O)N[C@H](CCCCN)C(N)=O)NC(=O)[C@H](CC2CCCCC2)NC1=O` [AzV33] (H-YK[Cha][Cha]C[dR][Cha][Oic]GHRT[Cha]C[dK]-NH2; disulfide 5-14), the Kd at rhEphA2 was found to be 100 ± 21 nM; at rhEphB4 it was 78.6 ± 4.5 nM; on rhEphB2/Fc, 106 ± 12 nM.
